The target of data set [1] is PLpro from SCoV-2 (Severe acute respiratory syndrome coronavirus 2, UniProt P0DTD1). Put plainly: Fluorescent PLpro inhibition assay (RLRGG-AMC substrate), dose response. It counts as biochemical, SARS-CoV-2.
The next data set deals with SARS-CoV-2 USA-WA1/2020. Put plainly: SCoV-2 USA-WA1/2020 antiviral assay with plaque forming readout in Vero E6 cells. It counts as cell-based.
For data set [2], the target named is T1, PLpro (Severe acute respiratory syndrome coronavirus 2, UniProt P0DTD1). Briefly: Surface plasmon resonance with immobilized His-tagged PLpro. It counts as binding, SARS-CoV-2. For orientation: In SPR one partner is held on a chip, and binding of the other changes the refractive index at the surface.
A short description of data set [3]: Cytotoxicity assay (resazurin). Type of data set: cell-based. The following applies: African green monkey, Vero CCL-81 cells, Vero CCL-81, resazurin, read-out: cell viability. (In general: Alamar Blue is a resazurin reagent that responds to reducing activity.)
The test system of another data set is Vero CCL-81 cells. Put plainly: Cytotoxicity assay (resazurin). It counts as cell-based. The following applies: 50 μM, Vero CCL-81, resazurin.
Data set [4] deals with T1, PLpro. Briefly: Time dependent PLpro inhibition assay (pre-incubation). Type of data set: biochemical, SARS-CoV-2. An excerpt:
Compound 5 contains a mercaptopyrimidine fragment, which can potentially undergo addition–elimination reactions with nucleophiles. For example, Murugesan et al. recently identified a mercaptopyrimidine based inhibitor of tuberculosis cell growth, which reacted with glutathione under physiological conditions.[27,35] PLpro is a cysteine protease with a nucleophilic cysteine in its active site, which could potentially react with compound 5via an additional elimination reaction. We performed a time dependent PLpro inhibition assay with compound 5 to determine if pre-incubation time lowered its IC50. Pre-incubation time lowers the IC50 of covalent inhibitors because it gives more time for the protein to react with the inhibitor. In contrast, pre-incubation time frequently has no effect on the IC50 of non-covalent inhibitors because their koffs are generally on the timescale of second to minutes.
The PLpro protein (50 nM) was preincubated with different concentration of inhibitor (0, 1, 2.5, 5, 10 and 20 μM) for different time points (0, 5, 10, 20, 35, 95, 125, 185 minutes). The substrate (50 μM) was added and measured the fluorescence. The data was analyzed using Enzyme – inhibition, GraphPad Prism.

The target of the next data set is SCoV2 PLpro (Severe acute respiratory syndrome coronavirus 2, UniProt P0DTD1). Put plainly: Gel-based activity based protein profiling (IA-rhodamine / NHS-rhodamine). Type of data set: biochemical, SARS-CoV-2. As to conditions: pulse chase. The procedure:
We performed activity-based profiling experiments to determine if compound 5 covalently reacted with the cysteines or lysines of PLpro.[36] Iodoacetamide-rhodamine was used as the probe for cysteine reactivity analysis and NHS-rhodamine was the probe for investigating lysine reactivity on PLpro. A traditional pulse chase experiment was performed with PLpro and the rhodamine dyes, where PLpro was first incubated with compound 5 and then incubated with iodoacetamide-rhodamine or NHS-rhodamine. After the dye incubation, PLpro was run on a protein gel and imaged via fluorescence. […] The other thiols in PLpro are either disulfides, which are unreactive to nucleophiles, or zinc chelated and have diminished nucleophilicity.
For gel-based ABPP experiments with PLpro, pure SCoV2 PLpro protein (0.1 μg per sample for IA-rhodamine and 0.05 μg for NHS-rhodamine) was pretreated with either DMSO vehicle or desired dosage of compound 5 at 37 °C for 1 hour in 25 μL PBS. […] Probe-labeled proteins were analyzed by in-gel rhodamine fluorescence using a ChemiDoc MP (Bio-Rad). Protein loading was assessed by Silver Staining.

A further data set has as its system SARS-CoV-2-NLuc. Type of data set: cell-based. The following applies: data not shown.
Data set [5] concerns the target T1, PLpro. Put plainly: Jump dilution assay (reversibility of PLpro inhibition). It counts as biochemical, SARS-CoV-2. On the procedure:
To investigate if compound 5 constitutes a novel class of RCI, we performed a jump dilution assay with PLpro, compound 5 and beta-mercaptoethanol (BMe). PLpro and compound 5 were mixed and allowed to react, diluted 25-fold in the presence of 5 mM BMe[38,39] and the inhibition of PLpro was measured.
BMe is not a biological nucleophile, and we re-did the jump dilution assay in the presence of either 5 mM reduced glutathione (GSH) or 200 μM cysteine (their physiological concentrations)[40] to determine if the PLpro-compound 5 adduct would rapidly decompose in cells. […] In contrast, smaller thiols such as BMe and cysteine can apparently access the PLpro active site and can displace compound 5. […] In addition, the mercaptopryimidine ring can function as a size selective filter for thiols and this unique feature should allow it to find numerous applications in drug discovery.
PLpro was mixed with compound 5 at the 10-fold higher concentration of IC50 (10 × IC50) and allowed to form protein-inhibitor complex at saturating conditions at room temperature. The complex was then rapidly diluted in a buffer supplemented with 5 mM reduced glutathione, 5 mM beta-mercaptoethanol (BMe), 200 μM cysteine to bring the compound's concentration of 1/10 × IC50. After 5 minutes of dilution, the substrate was added and incubated for 30 minutes. The fluorescent intensities were read at the excitation wavelength of 360 nm and emission wavelength of 460 nm.

Data set [6] deals with PLpro from SCoV-2. The arrangement: method as in PMID 33531496, PMID 32895623, PMID 33473130, PMID 34341772, PMID 32845033. As to conditions: cited from earlier work.
In another data set the test system is SCoV PLpro. On the set-up: method as in PMID 18852458. As to conditions: cited from earlier work.
For data set [7], the system named is SCoV-2. The arrangement: method as in PMID 33531496, PMID 32895623, PMID 33473130, PMID 34341772, PMID 32845033. As to conditions: oral delivery; cited from earlier work.
In data set [8] the test system is SCoV-2. On the set-up: method as in PMID 33531496, PMID 32895623, PMID 33473130, PMID 34341772, PMID 32845033. As to conditions: cited from earlier work.
[9] abbreviates: IC50 (PLpro inhibition, HTS hits), HTS hit dose response, 10 point 1:2 dilution from 40 μM, 50 nM PLpro, 50 μM RLRGG-AMC.
The mark [10] stands for this setting: IC50 (PLpro inhibition, compound 5 and derivatives), hit exploration / SAR, compounds purchased from ChemDiv.

What is called IC50 is the concentration that inhibits the measured activity by half. The Kd is the constant that tells how readily two partners part at equilibrium. For orientation: viability means a read-out of living cells in per cent, often relative to untreated cells.

Molecules are shown by their SMILES. Several values for one entry are separate records, joined by “and”; a condition that tells them apart may be missing. Equal values may be shown once. Entries after “also recorded” stand apart in the source; their conditions may differ. Read-outs that look alike come from different tables or passages of the source.

At PLpro from SCoV-2 [1] (setting [9]), `Cc1nn(-c2ccccc2)c(OC(=O)C(C)C)c1Sc1ccccc1` [Compound 1] gave an IC50 of 0.815 µM.

The compound `CNC(=O)c1sc(=S)n(-c2cc(Cl)ccc2OC)c1N` [Compound 2] registered a half-inhibitory concentration (IC50) against PLpro from SCoV-2 [1] (setting [9]) of 0.985 µM.

`Cc1nnc(Sc2nc(Sc3nnc(C)s3)nc(Sc3nnc(C)s3)n2)s1` [Compound 4] returned an IC50 on PLpro from SCoV-2 [1] (setting [9]) of 1.42 µM.

As for `CCSc1nc2sc3c(c2c(=O)n1CC)CCc1ccccc1-3` [Compound 5B], the “antiviral activity in Vero E6 cells by plaque assay” value in the data set on SARS-CoV-2 USA-WA1/2020 is “did not have any antiviral activity; also recorded: do not exhibit antiviral activity”. Further, the IC50 at PLpro from SCoV-2 [1] (hit exploration / SAR, compounds purchased from ChemDiv, read-out: IC50 (PLpro inhibition, compound 5 and derivatives)) was 5 µM and 4.99 µM.

Take `C=CCSc1nc2sc3c(c2c(=O)n1CC)CCc1ccccc1-3` [Compound 5E]: the “antiviral activity in Vero E6 cells by plaque assay” value in the data set on SARS-CoV-2 USA-WA1/2020 is on record as “did not have any antiviral activity; also recorded: do not exhibit antiviral activity”. For the same compound, on PLpro [2], the affinity, expressed as Kd, was 8.3 µM. In addition, at PLpro from SCoV-2 [1] (setting [10]), the IC50 was 0.9 µM and 0.853 µM and 0.85 µM. Moreover, the “IC50 relative to compound 5 (times lower / fold higher potency)” value on PLpro from SCoV-2 [1] (compared with compound 5) is listed as “approximately 5 fold”.

In the case of `CCCSc1nc2sc3c(c2c(=O)n1CC)CCc1ccccc1-3` [Compound 5], the viability at 72 h, 1 µM in data set [3] (1 μM) is over 85%. In data set [3] (10 μM), the viability at 72 h, 10 µM is over 85%. Moreover, the viability at 72 h, 25 µM in data set [3] (25 μM) is over 85%. The toxicity entry in the data set with Vero CCL-81 cells is on record as “significant toxicity”. For the same compound, the results for the “reduction in infectious virus levels (plaque forming assay)” value in the data set with SARS-CoV-2 USA-WA1/2020 (10 μM) and in the data set with SARS-CoV-2 USA-WA1/2020 (20 μM) were 3 fold and 22 fold, respectively. Besides, the IC50 at PLpro [4] (3 hour pre-incubation with PLpro, read-out: IC50 of PLpro inhibition after 3 hour pre-incubation) was 0.9 µM; at PLpro [4] (no pre-incubation, read-out: IC50 of PLpro inhibition, no pre-incubation), 9 µM; against PLpro from SCoV-2 [1] (setting [9]), 1.59 µM; against PLpro from SCoV-2 [1] (setting [10]) it was 5.1 µM and 5.19 µM and 5 µM. Moreover, the “decrease in IC50 after pre-incubation” value at PLpro [4] (3 hours pre-incubation vs none) stood at 10 fold. The “cysteine reactivity: blocking of iodoacetamide-rhodamine labelling of PLpro” value on SCoV2 PLpro (IA-rhodamine probe) is recorded as “prevents PLpro from reacting with iodo-acetamide; also recorded: able to prevent PLpro from reacting with iodo-acetamide”. In addition, the “lysine reactivity: blocking of NHS-rhodamine labelling of PLpro” value on SCoV2 PLpro (NHS-rhodamine probe) was “unable to prevent PLpro from reacting with NHS-rhodamine”. Further, the Kd at PLpro [2] (SPR, His-tagged PLpro on Ni-NTA chip, read-out: binding constant KD) amounted to 21 µM. For the same compound, the results for the “reduction of NLuc levels of infected cells” value in the data set on SARS-CoV-2-NLuc (10 μM) and in the data set on SARS-CoV-2-NLuc (20 μM) were 3 fold and 7 fold, respectively. In addition, the “recovery of PLpro activity after dilution” value on PLpro [5] (200 μM cysteine) is “can regenerate active PLpro; also recorded: recovered the activity of PLpro”; on PLpro [5] (5 mM reduced glutathione (GSH)), “cannot; also recorded: did not”; at PLpro [5] (diluted 25-fold with 5 mM BMe, 5 minutes) it was 90%; on PLpro [5] (dilution in PBS), “still inhibits PLpro after dilution with PBS”; on PLpro [5] (dilution in PBS, listed as compound 5), “no effect on the activity of PLpro”.

With `CCn1c(N)c(C(=O)Nc2ccccc2OC)sc1=S` [Compound 6], inhibition at PLpro from SCoV-2 [1] (setting [9]) was half-maximal at 2.73 µM (IC50).

For the compound `CCOC(=O)c1sc(=S)n(-c2cc(OC)ccc2OC)c1N` [Compound 7], inhibition against PLpro from SCoV-2 [1] (setting [9]) was half-maximal at 3.87 µM (IC50).

Regarding `CN(C)C(S)=Nc1nc2ccccc2s1` [Compound 8], on PLpro from SCoV-2 [1] (setting [9]), half-maximal inhibition (IC50) required 4.76 µM.

At PLpro from SCoV-2 [1] (setting [9]), `COC(=O)c1ccc([C@@H]2Nc3c(Cl)cccc3[C@@H]3C=CC[C@@H]32)cc1` [Compound 9] gave an IC50 of 7.94 µM.

For `Cc1ccc(-n2c(N)c(C(=O)N3CCCCC3)sc2=S)cc1` [Compound 10], at PLpro from SCoV-2 [1] (setting [9]), the IC50 is 8.33 µM.

`Cc1ccc(N)cc1C(=O)N[C@H](C)c1cccc2ccccc12` [GRL0617]: the “IC50 (PLpro from SCoV-2)” value in the data set with PLpro from SCoV-2 [6] is given as “micromolar range”. Moreover, in the data set with SCoV PLpro, the “IC50 (SCoV PLpro)” value is “low micromolar range”. In addition, in the data set with SCoV-2 [7], the “antiviral activity against SCoV-2 in mice” value was “moderate antiviral activity”. Besides, the “IC50 (viral replication in cells)” value with SCoV-2 [8] is reported as “micromolar range”.

Take `CCC(CC)COC(=O)[C@H](C)N[P@](=O)(OC[C@H]1O[C@@](C#N)(c2ccc3c(N)ncnn23)[C@H](O)[C@@H]1O)Oc1ccccc1` [Remdesivir, reference compound]: the “antiviral activity, positive control in plaque forming assay” value with SARS-CoV-2 USA-WA1/2020 (100 μM) is on record as “potently inhibited the virus”.

The record behind these values is PMC10259201, “Mercapto-pyrimidines are reversible covalent inhibitors of the papain-like protease (PLpro) and inhibit SARS-CoV-2 (SCoV-2) replication” (RSC Advances, 2023).
